Calls of active or inactive are those of the source.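 How the source made its calls: active means normalized inhibition above 25%; inactive means normalized inhibition below 25%.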
Target: Tyrosine-protein phosphatase non-receptor type 22 (Homo sapiens) (UniProt Q9Y2R2)
Assay: LYP phosphatase inhibitors with catalase present, biochemical, catalase added, Infinite200, 384-well (AID 1338)
Conditions: Recombinant LYP, DiFMUP fluorescence, at 10 µM, hits give high values

Tyrosine-protein phosphatase non-receptor type 22 (Homo sapiens), sequence (Q9Y2R2 whole entry, looked up): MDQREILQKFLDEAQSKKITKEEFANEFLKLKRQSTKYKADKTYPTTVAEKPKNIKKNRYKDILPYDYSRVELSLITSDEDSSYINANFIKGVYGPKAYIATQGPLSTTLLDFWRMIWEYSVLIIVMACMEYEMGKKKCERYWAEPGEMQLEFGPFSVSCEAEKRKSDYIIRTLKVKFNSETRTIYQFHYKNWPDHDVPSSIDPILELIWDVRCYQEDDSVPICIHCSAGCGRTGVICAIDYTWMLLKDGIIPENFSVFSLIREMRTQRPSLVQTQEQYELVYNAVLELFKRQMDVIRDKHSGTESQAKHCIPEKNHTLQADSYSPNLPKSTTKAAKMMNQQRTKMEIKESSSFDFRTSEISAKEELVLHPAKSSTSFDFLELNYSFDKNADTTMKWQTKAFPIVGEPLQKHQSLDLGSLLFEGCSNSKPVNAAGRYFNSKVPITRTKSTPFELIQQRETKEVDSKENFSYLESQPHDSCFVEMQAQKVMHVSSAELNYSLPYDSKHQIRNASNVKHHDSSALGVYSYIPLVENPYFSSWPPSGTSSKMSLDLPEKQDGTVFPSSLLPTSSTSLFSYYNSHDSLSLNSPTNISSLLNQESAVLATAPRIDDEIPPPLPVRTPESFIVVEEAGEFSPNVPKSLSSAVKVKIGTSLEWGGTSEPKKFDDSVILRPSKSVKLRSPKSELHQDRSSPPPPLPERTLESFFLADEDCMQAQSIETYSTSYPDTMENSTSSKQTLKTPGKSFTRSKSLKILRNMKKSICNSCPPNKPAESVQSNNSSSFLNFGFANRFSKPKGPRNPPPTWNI

SMILES | inhibition
COc1cccc(OC)c1-c1nn2c(-c3cc(-c4ccccc4)n[nH]3)nnc2s1 | 54.4%
CC(C)C(C(=O)O)N1C(=O)/C(=C/C=C/c2ccco2)SC1=S (stereo unspecified) | 13% (inactive)
Cc1ccc(NC(=O)CN2C(=O)S/C(=C\c3cccn3-c3cccc(C(=O)O)c3)C2=O)c(C)c1 | 48.2%
O=C(c1cccs1)c1no[n+]([O-])c1C(=O)c1cccs1 | 51.5%
O=C(O)CCCN1C(=O)/C(=C/c2ccc(-c3nc4ccccc4s3)o2)SC1=S | 36.5%
O=[N+]([O-])c1cc(/C=N\Nc2nccs2)ccc1O | 4% (inactive)
O=C(O)CCN1C(=O)/C(=C/c2ccc(-c3nc4ccccc4s3)o2)SC1=S | 48.9%
Nc1c(C(=O)Nc2nc3ccccc3s2)sc2nc(-c3cccs3)ccc12 | 32.2%
COc1cc(-c2nnc(SCc3cc(=O)oc4cc(O)c(O)cc34)o2)cc(OC)c1OC | 49%
CC(C(=O)O)N1C(=O)/C(=C/C=C/c2ccco2)SC1=S (stereo unspecified) | 2.7% (inactive)
Cn1nc(-c2ccc(Cl)cc2)nc2c(=O)n(C)c(=O)nc1-2 | 34.1%
